Test results as given in a melting point compilation (Tetko et al.; mined from patent text by program, amines drawn as free bases though some values may be those of a salt).
Residues, ends and D or L forms follow the SMILES beside them. *: point of attachment. ONp = O=[N+]([O-])c1ccc(O*)cc1

Compound | melting point [°C]
CCN(CCOC)C(=O)c1cc(-c2ccccc2)c(=O)n2c1-c1cc(Cl)ccc1CN2 | 184 to 185
CS(=O)(=O)c1ccc(C2=C(c3ccc(F)cc3)CC3(CCCC3)C2)cc1 | 142 to 143
COc1cc(N(C(=O)C[C@H](N)C(=O)O)S(=O)(=O)c2ccc3c(ccn3C)c2)cc(OC)c1OC | 156 to 159
Cc1ccc(C(=C/C=C/C(=O)O)c2ccc(C)cc2)cc1 | 224 to 226
O=C(NCCN1CCN(C(c2ccccc2)c2ccncc2)CC1)C1CSC(c2cccnc2)N1 (centres undefined) | 160 to 162
O=C(O)c1ccc(COc2ccc3cc(-c4ccc(-c5ccccc5)n4Cc4ccc(C(F)(F)F)cc4)ccc3c2)cc1 | 228 to 229
CS(=O)(=O)c1ccc(-c2cc([N+](=O)[O-])sc2-c2ccc(F)cc2)cc1 | 155 to 156
CC(C)Nc1ccc(O)cc1 | 143
COc1ccc(OC)c2c(=O)c3c(Cl)ccc([N+](=O)[O-])c3sc12 | 222 to 228
CCCCCCCCCCCCNC(=O)CC(Br)C(=O)O (centres undefined) | 62 to 70
CC(C)(C)OC(=O)CC[C@H](NC(=O)c1ccc(N(CCCl)CCCl)cc1)C(=O)OC(C)(C)C | 114 to 116
CCCCCCCC(=O)NCc1cccc(-c2ccc(CCC(=O)O)cc2)c1 | 124 to 125
O=C(O)[C@H](Cc1c[nH]c2ccccc12)NS(=O)(=O)c1ccc(F)cc1 | 57 to 60
CCCCCCCCOc1ccc(C(=O)Oc2ccc(-c3ccc(O)cc3)cc2)cc1 | 183
Clc1nc(-c2ccccc2)cc2ccccc12 | 75 to 77
O=C(O)C1CC2CCC1c1[nH]c3ccccc3c12 (centres undefined) | 212 to 214
CCCc1cn(Cc2ccc(C(=O)NS(=O)(=O)c3ccccc3Cl)cc2OC)c2cc(CCCC(=O)N(C)C)ccc12 | 137 to 138
COC(=O)Cc1ccc(OCCNC(=O)C2Cc3ccccc3N2S(=O)(=O)c2ccc(-c3ccc(C)cc3)c(C(F)(F)F)c2)cc1 (centres undefined) | 60
CC(=O)c1c(C)[nH]c(C(C)C)c1C | 166 to 167
O=[N+]([O-])c1cccc2cc(-c3ccccn3)[nH]c12 | 162 to 163
CC(=O)Nc1ccc(C(F)(F)F)cc1-c1ccc(OC(C)C(O)CCc2cccnc2)cc1 (centres undefined) | 44 to 47
CCCCSc1nnc(-c2ccc([N+](=O)[O-])cc2)s1 | 140
O=C(O)c1cc(CBr)on1 | 143 to 148
O=C(c1ccc2[nH]c(=O)n(Cc3ccc(F)cc3)c(=O)c2c1)c1nc(Br)c2ccccn12 | 325
Cc1cc(Cl)cc(C(=O)C(=O)O)c1NC(=O)c1cc(Br)nn1-c1ncccc1Cl | 139 to 142
O=C(O)CN(CC(=O)O)CC(CCc1ccc([N+](=O)[O-])cc1)N(CC(=O)O)CC(=O)O (centres undefined) | 188 to 189
CN(C)N1CSC(=CCc2cc(C(C)(C)C)c(O)c(C(C)(C)C)c2)C1=O | 181 to 186
NC(=O)Cc1ccccc1OCCn1ccnc1 | 116 to 118
Cc1cc(C)c(Nc2nc(C)ncc2S(=O)(=O)c2ccc(-n3ccnc3)cc2)c(C)c1 | 230 to 232
CCC12CCC3C4CCC(=O)C=C4C(C)CC3C1CCC2O (centres undefined) | 127 to 130

Now from value to compound:

melting point [°C] | Compound
197 | CCC1c2c([nH]c(=O)c(O)cc2=O)CC(Cl)C1Cl (centres undefined)
235 to 237 | CC(=O)NCC(C)(C)c1ccc2nc(-c3c[nH]cn3)[nH]c2c1
74 to 75 | COc1ccc(C=O)c(O[Si](C)(C)C(C)(C)C)c1O[Si](C)(C)C(C)(C)C
186 to 188 | COC(=O)c1cc(C(=O)OC)nc(O)n1
174 to 176 | COC(=O)c1ccc(CNC(=O)c2[nH]c(-c3cccs3)cc2-c2ccc(F)cc2)nc1
80 to 81 | CCOC(=O)CCCCOc1ccc(OCC)cc1C=O
191 to 192 | Fc1ccc(-c2ccn(C3CCNCC3)c2-c2ccncc2)cc1
184 to 185 | C[C@@H]1C(=O)N(C(=O)N2CCOCC2)Cc2ccccc2[C@@H]1C (relative stereo)
213 to 215 | c1ccc(COc2nn3c(-c4cc(-c5cccs5)on4)nnc3c3ccccc23)nc1
139 to 141 | Cc1nc(-n2cc(Cc3ccccc3)nn2)sc1C(=O)NCc1ccccc1
70 to 71 | Cn1ncc(C=O)c1-c1ccoc1
98 to 100 | Cn1c(C(F)(F)F)cc(=O)n(-c2c(F)cc(Br)c(O)c2N)c1=O
178 to 179 | O=C(O)c1ccc(Cn2ncc3ccccc32)cc1
186 to 187 | Cc1c(Cc2ccc(C(C)C)cc2)c2c(c(C)c1NC(=O)CC(C)(C)C)CC(C)(CO)O2 (centres undefined)
225 to 226 | COc1ccc(C(=O)COc2ccc(C(=O)O)c(O)c2)cc1C12CC3CC(CC(C3)C1)C2
236 to 238 | CC(=O)OC1CC2=CC(=NO)C3C4CCCC4(C)CCC3C2(C)C(OC(C)=O)C1 (centres undefined)
204 to 206 | N=C(N)c1ccc(NC(=O)N(c2cccc(C(=N)N)c2)C2CCCCCC2)cc1
227 to 229 | CCN(CC)c1ccc2cc(C(=O)O)c(=O)oc2c1
84 | OC1CCc2cc(Cl)c(Cl)cc21 (centres undefined)
109 to 110 | Cc1cc(COC2CCCO2)nc(N)n1 (centres undefined)

melting point [°C] | Compound
119 to 120 | Cc1c(Br)nc(Br)c(=O)n1C
198 to 202 | CN(C)c1ccc2c(c1)N(CCCN1CCC(C(=O)O)CC1)c1ccccc1CC2
262 to 263 | CCOC(=O)CCn1c(=O)c(=O)[nH]c2cc(C(F)(F)F)c(N)cc21
160 to 162 | Cc1nc(CCCCCn2cnc3c2c(=O)n(C)c(=O)n3C)no1
127 to 128 | Cc1nc(N2CCN(Cc3ccc(C(F)(F)F)cc3)C2=O)sc1C(=O)NCc1ccccc1
235 to 238 | C[C@H](CN1CC(C#N)C1)NC(=O)c1c[nH]c2ncc(-c3nn(C)c4cc(Cl)ccc34)nc12
286 to 287 | C[C@]12CC[C@H](O)CC1=CCC1C2CC[C@@]2(C)C1CC[C@@H]2c1cn(Cc2ccccc2)nn1 (some centres undefined)
180 | CCc1c(C)[nH]c(=O)c(CC)c1Oc1cc(C)cc(C)c1
45 to 47 | CCCc1cn(C)cc(-c2cccc(C(F)(F)F)c2)c1=O
163 to 164 | Cc1nccn1-c1ccc(COc2cccc(C3(C(N)=O)CCCC3)c2)cc1
161 to 163 | CCOC(=O)c1cnc2c3ccccc3c(CC)cn2c1=O
108 to 109 | C=C1CC(COc2cccc3ccc(C)nc23)(c2ccccc2)OC1=O (centres undefined)
274 to 275 | Nc1nc(-c2ccc(C(=O)N3CCN(S(=O)(=O)c4ccc5cc(Br)ccc5c4)CC3)cc2)c[nH]1
173 | CC(C)CC(NC(=O)C1CCCN1)C(=O)NCC(=O)Oc1ccc([N+](=O)[O-])cc1 (stereo not drawn) (H-Pro-Leu-Gly-ONp; configuration not given here)
108 | CC[C@@]1(C=O)CCCN(CCc2c[nH]c3ccc(OC)cc23)C1=O
126 to 127 | Cc1cc(Br)cc(/C=N/O)c1F
166 | Cc1ccc(S(=O)(=O)N2[C@@H](C(=O)O)CC[C@H]2c2ccc(F)cc2)cc1 (racemic)
253 to 255 | Cc1n[nH]c2cc(-c3nn(C(C)c4oc5ccc(F)cc5c(=O)c4-c4ccccc4)c4ncnc(N)c34)ccc12 (centres undefined)
159 to 160 | COC1=C(c2ccccc2)C(CC(=O)O)OC1=O (centres undefined)
